Paper PMC8634879, “Design, Synthesis, and Biological Evaluation of Pyrano[2,3-c]-pyrazole–Based RalA Inhibitors Against Hepatocellular Carcinoma” (Frontiers in Chemistry, 2021)
Like-named read-outs stand apart in the source and are kept apart here.

Assays:
SMMC-7721 cells = experiment: Cell proliferation assay (MTT), SMMC-7721; type: cell-based; conditions: Homo sapiens, average of at least three independent replicates ± SD, read-out: Anti-proliferative activities (IC50, μM) SMMC-7721
Procedure: (§1) The antibodies recognizing LC3, p62/SQSTM1, RalA, RalB, and GAPDH were purchased from Proteintech (Wuhan, China). HCC cell lines, including HepG2, Hep3B, Huh-7, and SMMC-7721, were obtained from the Chinese Center for Type Culture Collection (Wuhan, China) and cultured in DMEM (Dulbecco’s modified Eagle’s medium) with 10% FBS (fetal bovine serum) and streptomycin. Cytotoxicity assays were performed by using the MTT method as previously described.
(§2) The in vitro RalA/B bioactivity assays were performed following methods outlined in previous reports. ([Yan et al., 2016]; [Zhang et al., 2018]; [Walsh et al., 2019]; [Bum-Erdene et al., 2020]). In brief, the lysates of the test compound or vehicle-treated cells were cleared using cold centrifugation, and supernatants were collected. An RalBP1 solution was added to 96-well plates and incubated for 1–2 h, and then the plates were washed thrice using ELISA buffer. Next, cellular lysates were added, and samples were incubated overnight at 4°C. Then, ice-cold mouse anti-FLAG antibody was added, and samples were incubated for one more hour. After subsequent washing with ELISA buffer thrice, the HRP-conjugated anti-mouse antibody was added, and samples were incubated for another hour. Then, the HRP substrate was added. Antigen–antibody reactions were quenched by the addition of sulfuric acid (2 mol/L). Remaining RalA/B was detected by the OD450 values which were collected by using a plate reader. Cell proliferation assays, colony formation assays, apoptosis assays, GST pulldown, and Western blotting were used following methods outlined in our previous reports. ([Zhou et al., 2015]; [Zhang et al., 2016]; [Yang et al., 2017]; [He et al., 2019]). Autophagy levels and protein immunoblotting were used following the methods mentioned in our previous reports ([Pan et al., 2018]; [Wang et al., 2018]; [Hao et al., 2019]; [Wang et al., 2019]; [Peng et al., 2020]). Detailed experimental procedures are described in supporting materials.

RalA = target: T1, RalA (Homo sapiens, UniProt P11233); experiment: GST pulldown of activated RalA; type: cell-based
T1 construct: expressed in transfected cells; host or cells: HepG2 (from b6; the methods paragraph names no cell line)
T1 sequence (P11233 1-203 limits assumed): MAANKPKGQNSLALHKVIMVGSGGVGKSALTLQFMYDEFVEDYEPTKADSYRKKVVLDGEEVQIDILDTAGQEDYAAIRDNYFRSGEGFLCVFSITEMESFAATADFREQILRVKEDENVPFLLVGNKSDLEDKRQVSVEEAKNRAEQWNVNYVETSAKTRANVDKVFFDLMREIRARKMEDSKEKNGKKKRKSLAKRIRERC
Procedure: GST pulldown assays were performed to assess 4p RalA/B inhibitory capacities. […] Only activated RalA was suppressed after incubation with 0.5 μM of compound 4p (Figure 5A).
as §2

HepG2 cells = experiment: Cell proliferation assay (MTT), HepG2; type: cell-based; conditions: Homo sapiens
Procedure: as §1, §2

HepG2 xenograft = experiment: HepG2 subcutaneous xenograft model; type: in vivo
Procedure: Several reports have characterized RalA/B potential regulatory roles in autophagy ([Zhang et al., 2019]; [Pang et al., 2020]; [Zhang et al., 2020]). Considering the dual effect of HCC autophagy, we assessed changes in HepG2 cell autophagy levels after the addition of 0.5 or 2.0 μM of 4p, before incubation. Based on HepG2 cells’ TEM images with or without 4p (Figure 5B), autophagy vacuoles per cell decreased in the 4p-treated group (p < 0.01). After 4p treatments, LC3-II and ATG5 protein levels declined and SQSTM1 increased. […] In GFP-LC3–transfected HepG2 cells, cytoplasm LC3 fluorescent puncta numbers also declined after 4p treatments. […] The in vivo antitumor capacities of 4p were determined on a HepG2 subcutaneous xenograft model. The 4p intraperitoneal injections were set to 15 mg/kg and 60 mg/kg, according to in vitro results. […] The potential 4p molecular mechanisms were further validated using immunofluorescence and IHC analyses of tissue sections stained by antibodies against TUNEL, Ki-67, RalA, LC3-II, and SQSTM1. […] Therefore, the in vivo results were consistent with in vitro experiments.
Female Balb/c nude mice aged 6–8 weeks were purchased from Beijing Huafukang Co. Ltd. (Beijing, China). Animal-based experiments complied with the guidelines of the Animal Ethics Committee (Sichuan University), and all aspects were approved by the Animal Ethics Committee of West China Hospital of Sichuan University (China). In brief, HepG2 cells were injected subcutaneously in the dorsal flank of Balb/c nude mice (5*10^5 cells per mice). Tumor volumes were recorded every 2 days post cancer cell injection. After the therapeutic endpoint, all mice were euthanized, and tumor tissues were stripped, fixed in formalin, embedded in paraffin, and sectioned. The IHC and immunofluorescent staining methods were performed following methods as per our previous research, ([Zhang et al., 2019]; [Pan et al., 2020]; [Pang et al., 2020]; [Zhang et al., 2020]), and detailed experimental procedures are also described in supporting materials. […]
2. Western blotting analysis
For western blotting, the extracts of total protein from each sample were treated in accordance with the method we described previously. In short, the total proteins were loaded into the SDS-PAGE gel and separated through the different of their molecular weight in electrophoresis, after that the separated proteins were shifted into a PVDF membrane (Millipore, Burlington, MA, USA) and incubated through corresponding membrane react pathways. The resulted membranes reacted with major antibodies and HRP (horseradish peroxidase)-conjugated secondary antibodies. The expression profiles of target proteins can be identified through an enhanced chemiluminescence (ECL) substrate.
3. Immunohistochemistry and immunofluorescent assays
The histological sections of tumor tissue were immersed into EDTA antigen recovery buffer (pH 8.0) or citrate buffer (pH 6.0), and then microwave was used to recover antigen. Then the slide was incubated with the corresponding primary antibody at 37 ℃ for 30-40 min. Normal anti-rabbit or anti-mouse IgG was used as a negative control group. Immunohistochemical analysis was performed with diaminobenzidine solution after the sections was treated with HRP polymer as well as the second antibody for 30 min. Immunofluorescence (IF) test was carried out by treating slides with fluorescein combined with secondary antibody and detecting under fluorescence microscope. The IHC staining method is to use the corresponding primary antibody, as we reported in previous

Hep3B cells = experiment: Cell proliferation assay (MTT), Hep3B; type: cell-based; conditions: Homo sapiens, average of at least three independent replicates ± SD, read-out: Anti-proliferative activities (IC50, μM) Hep3B
Procedure: as §1, §2

For COc1ccc(S(=O)(=O)NC2=C(C#N)C(c3ccc(C(F)(F)F)cc3)c3c(C)nn(-c4ccccc4)c3O2)cc1 (centres unmarked) [4p, N-(5-cyano-3-methyl-1-phenyl-4-(4-(trifluoromethyl)phenyl)-1,4-dihydropyrano[2,3-c]-pyrazol-6-yl)-4-methoxybenzenesulfonamide], the IC50 (SMMC-7721 cells) was 5.38 ± 0.37 µM, the “activated RalA protein expression level” value (RalA; 0.5 μM, only activated RalA, not RalB) was “suppressed” and the “activated RalA protein expression level” value (RalA; 2.0 μM) was “significantly suppressed”. For the same molecule, the “total RalA expression” value (RalA; GST pulldown experiment) was “unchanged”, the IC50 (HepG2 cells; HepG2, Table 1, cell proliferation inhibition, read-out: IC50 (μM) HepG2) was 2.28 ± 0.23 µM and the IC50 (HepG2 cells; HepG2, Table 2, average of at least three independent replicates ± SD, read-out: Anti-proliferative activities (IC50, μM) HepG2) was 2.28 ± 0.23 µM. For the same molecule, the body weights (HepG2 xenograft; 15 and 60 mg/kg i.p.) was “without significant changes”, the “total RalA levels in tumor sections” value (HepG2 xenograft; IHC) was “No clear changes” and the “mean tumor weights compared to the control” value (HepG2 xenograft; both high- and low-dosage groups (60 and 15 mg/kg i.p.), p < 0.01) was “notably declined”. The “TUNEL and SQSTM1 levels in tumor sections” value (HepG2 xenograft; high dosage group, immunofluorescence/IHC) was “increased”, the “LC3-II expression in tumor sections” value (HepG2 xenograft; high dosage group, p < 0.01) was “decreased” and the “tumor growth inhibition (TGI)” value (HepG2 xenograft; high dosage, 60 mg/kg intraperitoneal injection) was 63%. The “tumor growth inhibition (TGI)” value (HepG2 xenograft; low dosage, 15 mg/kg intraperitoneal injection) was 39% and the IC50 (Hep3B cells) was 2.71 ± 0.27 µM.
